Laboratory results reported in the supplement of paper PMC10307832.

Assays:
Experiment in all cases: relative viability (nuclei count vs DMSO), 5 days (fraction); higher = more cells survive
FH535 + Vorinostat = compound: CC1=C(C=CC(=C1)[N+](=O)[O-])NS(=O)(=O)C2=C(C=CC(=C2)Cl)Cl [FH535] + O=C(CCCCCCC(=O)Nc1ccccc1)NO [Vorinostat] (partner 1 µM)
In short: (§1)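 Relative viability is defined as nuclei in treated wells over nuclei in vehicle wells. Duplicate plates were run and medians reported. Lung cancer cell lines in 1536-well plates were dosed by pin tool one day after seeding, with one drug or with a fixed anchor-drug dose plus five library-drug doses (not always all listed) in √10 steps, and nuclei were counted after 5 days.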

FH535 + Foretinib = compound: CC1=C(C=CC(=C1)[N+](=O)[O-])NS(=O)(=O)C2=C(C=CC(=C2)Cl)Cl [FH535] + COc1cc2c(Oc3ccc(NC(=O)C4(C(=O)Nc5ccc(F)cc5)CC4)cc3F)ccnc2cc1OCCCN1CCOCC1 [Foretinib] (partner 0.25 µM)
In short: as §1

FH535 + Bortezomib = compound: CC1=C(C=CC(=C1)[N+](=O)[O-])NS(=O)(=O)C2=C(C=CC(=C2)Cl)Cl [FH535] + CC(C)C[C@H](NC(=O)[C@H](Cc1ccccc1)NC(=O)c1cnccn1)B(O)O [Bortezomib] (partner 0.002 µM)
In short: as §1

FH535 + Tozasertib = compound: CC1=C(C=CC(=C1)[N+](=O)[O-])NS(=O)(=O)C2=C(C=CC(=C2)Cl)Cl [FH535] + Cc1cc(Nc2cc(N3CCN(C)CC3)nc(Sc3ccc(NC(=O)C4CC4)cc3)n2)n[nH]1 [Tozasertib] (partner 0.1 µM)
In short: as §1

FH535 + Luminespib = compound: CC1=C(C=CC(=C1)[N+](=O)[O-])NS(=O)(=O)C2=C(C=CC(=C2)Cl)Cl [FH535] + CCNC(=O)c1noc(-c2cc(C(C)C)c(O)cc2O)c1-c1ccc(CN2CCOCC2)cc1 [Luminespib] (partner 0.01 µM)
In short: as §1

| Cell Line | relative viability (FH535 + Vorinostat; first compound 0.04 µM) | relative viability (FH535 + Vorinostat; first compound 0.1265 µM) | relative viability (FH535 + Vorinostat; first compound 0.4 µM) | relative viability (FH535 + Vorinostat; first compound 1.265 µM) | relative viability (FH535 + Foretinib; first compound 0.04 µM) | relative viability (FH535 + Foretinib; first compound 0.1265 µM) | relative viability (FH535 + Foretinib; first compound 0.4 µM) | relative viability (FH535 + Foretinib; first compound 1.265 µM) | relative viability (FH535 + Bortezomib; first compound 0.04 µM) | relative viability (FH535 + Bortezomib; first compound 0.1265 µM) | relative viability (FH535 + Bortezomib; first compound 0.4 µM) | relative viability (FH535 + Bortezomib; first compound 1.265 µM) | relative viability (FH535 + Tozasertib; first compound 0.04 µM) | relative viability (FH535 + Tozasertib; first compound 0.1265 µM) | relative viability (FH535 + Tozasertib; first compound 0.4 µM) | relative viability (FH535 + Tozasertib; first compound 1.265 µM) | relative viability (FH535 + Luminespib; first compound 0.04 µM) | relative viability (FH535 + Luminespib; first compound 0.1265 µM) | relative viability (FH535 + Luminespib; first compound 0.4 µM) | relative viability (FH535 + Luminespib; first compound 1.265 µM) |
| --- | --- | --- | --- | --- | --- | --- | --- | --- | --- | --- | --- | --- | --- | --- | --- | --- | --- | --- | --- | --- |
| LU99A | 0.356 | 0.484 | 0.487 | 0.464 | 0.706 | 0.865 | 0.736 | 0.761 | 0.726 | 1.01 | 1.05 | 0.948 | 0.297 | 0.281 | 0.329 | 0.273 | 0.225 | 0.272 | 0.209 | 0.236 |
| LXF-289 | 0.58 | 0.762 | 0.698 | 0.574 | 0.975 | 0.983 | 0.862 | 0.684 | 0.96 | 0.996 | 0.928 | 0.723 | 0.191 | 0.172 | 0.166 | 0.136 | 0.635 | 0.837 | 0.611 | 0.61 |
| NCI-H23 | 0.399 | 0.535 | 0.564 | 0.378 | 0.469 | 1.07 | 0.953 | 0.636 | – | 1.25 | 1.04 | 1.11 | 0.281 | 0.344 | 0.466 | 0.301 | – | 0.207 | 0.199 | 0.225 |
| NCI-H322M | 0.898 | 0.878 | 0.83 | 0.744 | 0.966 | 1 | 0.961 | 0.882 | 1.21 | 1.14 | 1.07 | 1.08 | 0.493 | 0.514 | 0.475 | 0.468 | 0.816 | 0.904 | 0.866 | 0.805 |
| NCI-H441 | 0.733 | 0.59 | 0.843 | 0.757 | 0.959 | 0.97 | 1.08 | 0.801 | 0.356 | 0.351 | 0.376 | 0.293 | 0.614 | 0.755 | 0.581 | 0.564 | 0.319 | 0.291 | 0.356 | 0.352 |
| NCI-H460 | 0.72 | 0.743 | 0.674 | 0.447 | 1.05 | 1.05 | 0.937 | 0.654 | 0.984 | 1.24 | 1.16 | 0.668 | 0.219 | 0.5 | 0.382 | 0.21 | 0.0362 | 0.0377 | 0.0408 | 0.0254 |
| NCI-H520 | 0.546 | 0.723 | 0.81 | 0.714 | 0.684 | 0.781 | 0.574 | 0.875 | 0.304 | 0.239 | 0.522 | 0.601 | 0.375 | 0.44 | 0.393 | 0.401 | 0.159 | 0.212 | 0.257 | 0.24 |
| NCI-H596 | 0.579 | 0.511 | 0.569 | 0.544 | 0.833 | 0.899 | 0.852 | 0.819 | 0.915 | 1.09 | 1.19 | 0.952 | 0.947 | 0.992 | 0.931 | 0.696 | 1.07 | 1.11 | 0.85 | 0.992 |
| NCI-H647 | 0.442 | 0.63 | 0.408 | 0.462 | 1.14 | 1.22 | 1.13 | 1.14 | 0.964 | 0.584 | 0.818 | 0.95 | 0.314 | 0.145 | 0.176 | 0.42 | 0.156 | 0.167 | 0.125 | 0.23 |
| NCI-H650 | 0.342 | 0.383 | 0.385 | 0.365 | 0.927 | 1.05 | 1.01 | 0.788 | 0.704 | 0.854 | 0.794 | 0.506 | 0.603 | 0.783 | 0.766 | 0.51 | 0.639 | 0.732 | 0.796 | 0.619 |
| NCI-H661 | 0.745 | 0.821 | 0.799 | 0.687 | 1.01 | 0.947 | 0.92 | 0.671 | 0.735 | 0.839 | 0.767 | 0.532 | 0.365 | 0.339 | 0.346 | 0.332 | 0.893 | 0.928 | 0.841 | 0.56 |
| NCI-H727 | 1.17 | 1.15 | 1.1 | 1.22 | 1.04 | 0.637 | 0.925 | 0.684 | 0.687 | 0.59 | 0.75 | 0.721 | 0.465 | 0.545 | 0.582 | 0.504 | 0.323 | 0.5 | 0.327 | 0.297 |
| NCI-H838 | 0.704 | 0.754 | 0.659 | 0.591 | 1.03 | 1.11 | 0.933 | 0.823 | 0.701 | 0.713 | 0.694 | 0.575 | 0.286 | 0.246 | 0.272 | 0.19 | 0.278 | 0.419 | 0.261 | 0.247 |
| NCI-H1355 | 0.574 | 0.631 | 0.565 | 0.534 | 1.03 | 1 | 0.904 | 0.582 | 1.09 | 1.2 | 1.15 | 1.03 | 0.507 | 0.584 | 0.557 | 0.399 | 0.667 | 0.761 | 0.72 | 0.463 |
| NCI-H1437 | 0.905 | 0.847 | 0.629 | 0.304 | 1.27 | 1.21 | 0.924 | 0.425 | 0.427 | 0.624 | 0.303 | 0.286 | 0.425 | 0.404 | 0.358 | 0.22 | 1.1 | 1 | 0.858 | 0.449 |
